{"source": "PubChem BioAssay AID2060895", "about": "(Molecular Pharmacology Branch, DTP, NCI, 2025)", "test_system": "PDC 899932-113-R3-J6 complex spheroid viability", "test": "Anticancer human tumor 899932-113-R3-J6-PDC patient-derived melanoma cell line growth inhibition [RAS]", "conditions": "for IC50: curve of first compound; for viability, T/C: stronger effect = lower value", "summary_of_the_method": "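Tumour cells grown as complex spheroids with HUVEC endothelial cells and mesenchymal stem cells, treated with RAS pathway inhibitor combinations. Each agent spans half-log steps from near clinical Cmax, or 10 microM where Cmax is unknown.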", "key": {"[1]": {"conditions": "second compound 0.00316 µM, first compound 0.00316 µM"}, "[2]": {"conditions": "second compound 0.00316 µM, first compound 0.01 µM"}, "[3]": {"conditions": "second compound 0.00316 µM, first compound 0.0316 µM"}, "[4]": {"conditions": "second compound 0.00316 µM, first compound 0.1 µM"}, "[5]": {"conditions": "second compound 0.00316 µM, first compound 0.316 µM"}, "[6]": {"conditions": "second compound 0.00316 µM, first compound 1 µM"}, "[7]": {"conditions": "second compound 0.01 µM, first compound 0.00316 µM"}, "[8]": {"conditions": "second compound 0.01 µM, first compound 0.01 µM"}, "[9]": {"conditions": "second compound 0.01 µM, first compound 0.0316 µM"}, "[10]": {"conditions": "second compound 0.01 µM, first compound 0.1 µM"}, "[11]": {"conditions": "second compound 0.01 µM, first compound 0.316 µM"}, "[12]": {"conditions": "second compound 0.01 µM, first compound 1 µM"}, "[13]": {"conditions": "second compound 0.0316 µM, first compound 0.00316 µM"}, "[14]": {"conditions": "second compound 0.0316 µM, first compound 0.01 µM"}, "[15]": {"conditions": "second compound 0.0316 µM, first compound 0.0316 µM"}, "[16]": {"conditions": "second compound 0.0316 µM, first compound 0.1 µM"}, "[17]": {"conditions": "second compound 0.0316 µM, first compound 0.316 µM"}, "[18]": {"conditions": "second compound 0.0316 µM, first compound 1 µM"}, "[19]": {"conditions": "second compound 0.1 µM, first compound 0.00316 µM"}, "[20]": {"conditions": "second compound 0.1 µM, first compound 0.01 µM"}, "[21]": {"conditions": "second compound 0.1 µM, first compound 0.0316 µM"}, "[22]": {"conditions": "second compound 0.1 µM, first compound 0.1 µM"}, "[23]": {"conditions": "second compound 0.1 µM, first compound 0.316 µM"}, "[24]": {"conditions": "second compound 0.1 µM, first compound 1 µM"}, "[25]": {"conditions": "second compound 0.316 µM, first compound 0.00316 µM"}, "[26]": {"conditions": "second compound 0.316 µM, first compound 0.01 µM"}, "[27]": {"conditions": "second compound 0.316 µM, first compound 0.0316 µM"}, "[28]": {"conditions": "second compound 0.316 µM, first compound 0.1 µM"}, "[29]": {"conditions": "second compound 0.316 µM, first compound 0.316 µM"}, "[30]": {"conditions": "second compound 0.316 µM, first compound 1 µM"}, "[31]": {"conditions": "second compound 1 µM, first compound 0.00316 µM"}, "[32]": {"conditions": "second compound 1 µM, first compound 0.01 µM"}, "[33]": {"conditions": "second compound 1 µM, first compound 0.0316 µM"}, "[34]": {"conditions": "second compound 1 µM, first compound 0.1 µM"}, "[35]": {"conditions": "second compound 1 µM, first compound 0.316 µM"}, "[36]": {"conditions": "second compound 1 µM, first compound 1 µM"}}}
{"compound": "C=CC(=O)Nc1cc(Nc2nccc(-c3cn(C)c4ccccc34)n2)c(OC)cc1N(C)CCN(C)C", "note": "+ C=CC(=O)N1CCN(c2nc(OCC3CCCN3C)nc3c(F)c(-c4nc(N)cc(C)c4C(F)(F)F)c(Cl)cc23)C(C)C1;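 as to viability, T/C: spheroids exposed to agents for seven days before readout; 100% = DMSO vehicle control wells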", "values": [{"measurement": "IC50", "setting": "second compound 0.00316 µM", "result": "> 1000", "unit": "nM"}, {"measurement": "IC50", "setting": "second compound 0.01 µM", "result": "> 1000", "unit": "nM"}, {"measurement": "IC50", "setting": "second compound 0.0316 µM", "result": "> 1000", "unit": "nM"}, {"measurement": "IC50", "setting": "second compound 0.1 µM", "result": "> 1000", "unit": "nM"}, {"measurement": "IC50", "setting": "second compound 0.316 µM", "result": "> 1000", "unit": "nM"}, {"measurement": "IC50", "setting": "second compound 1 µM", "result": "> 1000", "unit": "nM"}, {"measurement": "viability, T/C", "setting": "[1]", "result": 103, "unit": "%"}, {"measurement": "viability, T/C", "setting": "[2]", "result": 93.5, "unit": "%"}, {"measurement": "viability, T/C", "setting": "[3]", "result": 101, "unit": "%"}, {"measurement": "viability, T/C", "setting": "[4]", "result": 99.1, "unit": "%"}, {"measurement": "viability, T/C", "setting": "[5]", "result": 101, "unit": "%"}, {"measurement": "viability, T/C", "setting": "[6]", "result": 82.8, "unit": "%"}, {"measurement": "viability, T/C", "setting": "[7]", "result": 98.9, "unit": "%"}, {"measurement": "viability, T/C", "setting": "[8]", "result": 99.4, "unit": "%"}, {"measurement": "viability, T/C", "setting": "[9]", "result": 98.7, "unit": "%"}, {"measurement": "viability, T/C", "setting": "[10]", "result": 101, "unit": "%"}, {"measurement": "viability, T/C", "setting": "[11]", "result": 101, "unit": "%"}, {"measurement": "viability, T/C", "setting": "[12]", "result": 92.2, "unit": "%"}, {"measurement": "viability, T/C", "setting": "[13]", "result": 106, "unit": "%"}, {"measurement": "viability, T/C", "setting": "[14]", "result": 101, "unit": "%"}, {"measurement": "viability, T/C", "setting": "[15]", "result": 92.9, "unit": "%"}, {"measurement": "viability, T/C", "setting": "[16]", "result": 107, "unit": "%"}, {"measurement": "viability, T/C", "setting": "[17]", "result": 107, "unit": "%"}, {"measurement": "viability, T/C", "setting": "[18]", "result": 82, "unit": "%"}, {"measurement": "viability, T/C", "setting": "[19]", "result": 110, "unit": "%"}, {"measurement": "viability, T/C", "setting": "[20]", "result": 95, "unit": "%"}, {"measurement": "viability, T/C", "setting": "[21]", "result": 112, "unit": "%"}, {"measurement": "viability, T/C", "setting": "[22]", "result": 97.7, "unit": "%"}, {"measurement": "viability, T/C", "setting": "[23]", "result": 96.4, "unit": "%"}, {"measurement": "viability, T/C", "setting": "[24]", "result": 99.6, "unit": "%"}, {"measurement": "viability, T/C", "setting": "[25]", "result": 112, "unit": "%"}, {"measurement": "viability, T/C", "setting": "[26]", "result": 103, "unit": "%"}, {"measurement": "viability, T/C", "setting": "[27]", "result": 101, "unit": "%"}, {"measurement": "viability, T/C", "setting": "[28]", "result": 107, "unit": "%"}, {"measurement": "viability, T/C", "setting": "[29]", "result": 102, "unit": "%"}, {"measurement": "viability, T/C", "setting": "[30]", "result": 89.1, "unit": "%"}, {"measurement": "viability, T/C", "setting": "[31]", "result": 98.4, "unit": "%"}, {"measurement": "viability, T/C", "setting": "[32]", "result": 97.2, "unit": "%"}, {"measurement": "viability, T/C", "setting": "[33]", "result": 91.8, "unit": "%"}, {"measurement": "viability, T/C", "setting": "[34]", "result": 94.5, "unit": "%"}, {"measurement": "viability, T/C", "setting": "[35]", "result": 105, "unit": "%"}, {"measurement": "viability, T/C", "setting": "[36]", "result": 78.8, "unit": "%"}]}
{"compound": "O=C(c1ccc(F)c(F)c1Nc1ccc(I)cc1F)N1CC(O)([C@@H]2CCCCN2)C1", "note": "+ C=CC(=O)N1CCN(c2nc(OCC3CCCN3C)nc3c(F)c(-c4nc(N)cc(C)c4C(F)(F)F)c(Cl)cc23)C(C)C1", "values": [{"measurement": "IC50", "setting": "second compound 0.00316 µM", "result": 5.71, "unit": "nM"}, {"measurement": "IC50", "setting": "second compound 0.01 µM", "result": 6.26, "unit": "nM"}, {"measurement": "IC50", "setting": "second compound 0.0316 µM", "result": 6.75, "unit": "nM"}, {"measurement": "IC50", "setting": "second compound 0.1 µM", "result": 8.47, "unit": "nM"}, {"measurement": "IC50", "setting": "second compound 0.316 µM", "result": 7.95, "unit": "nM"}, {"measurement": "IC50", "setting": "second compound 1 µM", "result": 8.43, "unit": "nM"}, {"measurement": "viability, T/C", "setting": "[1]", "result": 71.1, "unit": "%"}, {"measurement": "viability, T/C", "setting": "[2]", "result": 30, "unit": "%"}, {"measurement": "viability, T/C", "setting": "[3]", "result": 6.25, "unit": "%"}, {"measurement": "viability, T/C", "setting": "[4]", "result": 3.24, "unit": "%"}, {"measurement": "viability, T/C", "setting": "[5]", "result": 1.5, "unit": "%"}, {"measurement": "viability, T/C", "setting": "[6]", "result": 0.84, "unit": "%"}, {"measurement": "viability, T/C", "setting": "[7]", "result": 74.8, "unit": "%"}, {"measurement": "viability, T/C", "setting": "[8]", "result": 33, "unit": "%"}, {"measurement": "viability, T/C", "setting": "[9]", "result": 5.84, "unit": "%"}, {"measurement": "viability, T/C", "setting": "[10]", "result": 2.5, "unit": "%"}, {"measurement": "viability, T/C", "setting": "[11]", "result": 1.9, "unit": "%"}, {"measurement": "viability, T/C", "setting": "[12]", "result": 0.68, "unit": "%"}, {"measurement": "viability, T/C", "setting": "[13]", "result": 81.8, "unit": "%"}, {"measurement": "viability, T/C", "setting": "[14]", "result": 33.5, "unit": "%"}, {"measurement": "viability, T/C", "setting": "[15]", "result": 7.48, "unit": "%"}, {"measurement": "viability, T/C", "setting": "[16]", "result": 2.48, "unit": "%"}, {"measurement": "viability, T/C", "setting": "[17]", "result": 1.88, "unit": "%"}, {"measurement": "viability, T/C", "setting": "[18]", "result": 0.72, "unit": "%"}, {"measurement": "viability, T/C", "setting": "[19]", "result": 73.9, "unit": "%"}, {"measurement": "viability, T/C", "setting": "[20]", "result": 46, "unit": "%"}, {"measurement": "viability, T/C", "setting": "[21]", "result": 7.56, "unit": "%"}, {"measurement": "viability, T/C", "setting": "[22]", "result": 2.66, "unit": "%"}, {"measurement": "viability, T/C", "setting": "[23]", "result": 1.89, "unit": "%"}, {"measurement": "viability, T/C", "setting": "[24]", "result": 1.02, "unit": "%"}, {"measurement": "viability, T/C", "setting": "[25]", "result": 74.5, "unit": "%"}, {"measurement": "viability, T/C", "setting": "[26]", "result": 43.9, "unit": "%"}, {"measurement": "viability, T/C", "setting": "[27]", "result": 9.69, "unit": "%"}, {"measurement": "viability, T/C", "setting": "[28]", "result": 2.51, "unit": "%"}, {"measurement": "viability, T/C", "setting": "[29]", "result": 1.92, "unit": "%"}, {"measurement": "viability, T/C", "setting": "[30]", "result": 0.96, "unit": "%"}, {"measurement": "viability, T/C", "setting": "[31]", "result": 72.8, "unit": "%"}, {"measurement": "viability, T/C", "setting": "[32]", "result": 46, "unit": "%"}, {"measurement": "viability, T/C", "setting": "[33]", "result": 7.46, "unit": "%"}, {"measurement": "viability, T/C", "setting": "[34]", "result": 3.39, "unit": "%"}, {"measurement": "viability, T/C", "setting": "[35]", "result": 1.9, "unit": "%"}, {"measurement": "viability, T/C", "setting": "[36]", "result": 1.15, "unit": "%"}]}
